Assay results: patent US11945794B2, “Nuclear transport modulators and uses thereof” (Karyopharm Therapeutics Inc., priority 2013, dated 2024)

Columns and labels:
Assay type in all cases: cell-based
mutant CRM1-Cys528Ser = molecular target: T1, mutant CRM1-Cys528Ser (Homo sapiens, UniProt O14980, C528S); test: Cys 528 mutation assay, Rev-GFP localization; settings: 30 μM, U2OS Rev-GFP cells
T1 construct: expressed in transfected cells; host or cells: U2OS (osteosarcoma) cells stably expressing Rev-GFP
Method: (§1) U2OS (osteosarcoma) cells stably expressing GFP-tagged HIV-Rev fused to the cAMP-dependent protein kinase inhibitor (PM) nuclear export signal (Rev-GFP) were transiently transfected with constructs expressing wild-type CRM1 or mutant CRM1-Cys528Ser for 36 hours. The transient transfection efficiency in the experiment was estimated to be 50%.

wild-type CRM1 = molecular target: T2, wild-type CRM1 (Homo sapiens, UniProt O14980); test: Cys 528 mutation assay, Rev-GFP localization; settings: 30 μM, 4 hours, U2OS Rev-GFP cells
T2 construct: expressed in transfected cells; host or cells: U2OS (osteosarcoma) cells stably expressing Rev-GFP
Method: as §1

BL-2 = test: MTT assay panel; settings: BL2; BL-2 cells, 72 hours
Method: (§2) Compound 124 was further tested against a panel of selected solid and hematological cancer cell lines and selected normal cell lines in an MTT assay. Briefly, the various cell lines above were plated at different densities on day 1. […] Cell Titer AQueous One was added to each well, and the plates were read in a plate reader at OD 495.

BL-40 = test: MTT assay panel; settings: BL-40 cells, 72 hours
Method: as §2

Calu-3 = test: MTT assay panel; settings: Homo sapiens; Calu-3 cells, 72 hours
Method: as §2

HCC-827 = test: MTT assay panel; settings: Homo sapiens, HCC827; HCC-827 cells, 72 hours
Method: as §2

HCT116 = test: MTT assay panel; settings: Homo sapiens, HCT-116; HCT116 cells, 72 hours
Method: as §2

HEP3B = test: MTT assay panel; settings: Homo sapiens; HEP3B cells, 72 hours
Method: as §2

HT1080 = test: MTT assay panel; settings: Homo sapiens, HT-1080; HT1080 cells, 72 hours
Method: as §2

HuCCT-1 = test: MTT assay panel; settings: Homo sapiens; HuCCT-1 cells, 72 hours
Method: as §2

L3.6pl = test: MTT assay panel; settings: Homo sapiens; L3.6pl cells, 72 hours
Method: as §2

LS-174T = test: MTT assay panel; settings: Homo sapiens, LS174T; LS-174T cells, 72 hours
Method: as §2

MCF7 = test: MTT assay panel; settings: Homo sapiens; MCF7 cells, 72 hours
Method: as §2

MDA-MB-231 = test: MTT assay panel; settings: Homo sapiens; MDA-MB-231 cells, 72 hours
Method: as §2

MM1R = test: MTT assay panel; settings: MM.1R; MM1R cells, 72 hours
Method: as §2

MOLT4 = test: MTT assay panel; settings: Homo sapiens, MOLT-4; MOLT4 cells, 72 hours
Method: as §2

MS751 = test: MTT assay panel; settings: MS751 cells, 72 hours
Method: as §2

NCI-H1650 = test: MTT assay panel; settings: Homo sapiens; NCI-H1650 cells, 72 hours
Method: as §2

NCI-H187 = test: MTT assay panel; settings: Homo sapiens; NCI-H187 cells, 72 hours
Method: as §2

NCI-H1993 = test: MTT assay panel; settings: Homo sapiens; NCI-H1993 cells, 72 hours
Method: as §2

NCI-H2170 = test: MTT assay panel; settings: Homo sapiens; NCI-H2170 cells, 72 hours
Method: as §2

NCI-H226 = test: MTT assay panel; settings: Homo sapiens; NCI-H226 cells, 72 hours
Method: as §2

NCI-H28 = test: MTT assay panel; settings: Homo sapiens; NCI-H28 cells, 72 hours
Method: as §2

NCI-H508 = test: MTT assay panel; settings: Homo sapiens; NCI-H508 cells, 72 hours
Method: as §2

PL-45 = test: MTT assay panel; settings: PL45; PL-45 cells, 72 hours
Method: as §2

Pfieffer = test: MTT assay panel; settings: Pfieffer cells, 72 hours
Method: as §2

RKO = test: MTT assay panel; settings: Homo sapiens; RKO cells, 72 hours
Method: as §2

SK-CO-1 = test: MTT assay panel; settings: Homo sapiens; SK-CO-1 cells, 72 hours
Method: as §2

SKOV3 = test: MTT assay panel; settings: Homo sapiens, SK-OV-3; SKOV3 cells, 72 hours
Method: as §2

SNU-398 = test: MTT assay panel; settings: Homo sapiens; SNU-398 cells, 72 hours
Method: as §2

SW-403 = test: MTT assay panel; settings: Homo sapiens; SW-403 cells, 72 hours
Method: as §2

SW-900 = test: MTT assay panel; settings: Homo sapiens, SW900; SW-900 cells, 72 hours
Method: as §2

THP1 = test: MTT assay panel; settings: Homo sapiens, THP-1; THP1 cells, 72 hours
Method: as §2

U-266 = test: MTT assay panel; settings: Homo sapiens; U-266 cells, 72 hours
Method: as §2

U-937 = test: MTT assay panel; settings: Homo sapiens; U-937 cells, 72 hours
Method: as §2

U118MG = test: MTT assay panel; settings: Homo sapiens, U-118-MG; U118MG cells, 72 hours
Method: as §2

T1 sequence (O14980 whole entry C528S): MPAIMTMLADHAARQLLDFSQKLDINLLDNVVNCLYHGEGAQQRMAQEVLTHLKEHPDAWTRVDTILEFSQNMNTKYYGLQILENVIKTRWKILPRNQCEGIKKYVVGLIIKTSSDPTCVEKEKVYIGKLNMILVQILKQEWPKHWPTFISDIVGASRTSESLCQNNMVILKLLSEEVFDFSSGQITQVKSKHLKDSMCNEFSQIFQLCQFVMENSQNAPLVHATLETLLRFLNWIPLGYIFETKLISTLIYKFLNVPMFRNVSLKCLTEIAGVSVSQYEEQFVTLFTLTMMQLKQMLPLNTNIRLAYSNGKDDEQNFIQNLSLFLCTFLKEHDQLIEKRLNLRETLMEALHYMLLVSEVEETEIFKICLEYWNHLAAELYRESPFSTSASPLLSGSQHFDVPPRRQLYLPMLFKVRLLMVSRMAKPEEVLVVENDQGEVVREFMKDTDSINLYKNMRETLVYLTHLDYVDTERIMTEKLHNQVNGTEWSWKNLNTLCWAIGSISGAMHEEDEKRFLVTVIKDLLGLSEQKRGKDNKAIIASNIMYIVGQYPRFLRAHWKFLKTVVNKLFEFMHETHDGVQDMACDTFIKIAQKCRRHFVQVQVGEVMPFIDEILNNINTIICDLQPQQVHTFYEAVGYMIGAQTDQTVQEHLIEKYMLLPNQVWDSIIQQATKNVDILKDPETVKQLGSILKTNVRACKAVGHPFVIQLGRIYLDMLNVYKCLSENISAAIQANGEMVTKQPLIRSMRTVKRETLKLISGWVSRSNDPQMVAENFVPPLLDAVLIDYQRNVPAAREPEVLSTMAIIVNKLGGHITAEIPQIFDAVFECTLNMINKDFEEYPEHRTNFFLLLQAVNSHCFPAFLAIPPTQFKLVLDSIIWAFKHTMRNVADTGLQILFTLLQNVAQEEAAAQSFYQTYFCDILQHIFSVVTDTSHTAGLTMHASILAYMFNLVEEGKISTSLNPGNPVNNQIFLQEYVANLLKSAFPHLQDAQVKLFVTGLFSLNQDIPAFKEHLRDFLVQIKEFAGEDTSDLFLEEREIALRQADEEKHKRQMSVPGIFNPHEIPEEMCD
T2 sequence (O14980 whole entry, species assumed): as the sequence (O14980 whole entry C528S) above, with S528C counted along it

- IC50 (Calu-3): 1380 nM
- IC50 (HCC-827): 460 nM
- IC50 (HCT116): 110 nM
- IC50 (HEP3B): 300 nM
- IC50 (HT1080): 310 nM
- IC50 (MCF7): 680 nM
- IC50 (MDA-MB-231): 120 nM
- IC50 (MM1R): 8 nM
- IC50 (MOLT4): 10 nM
- IC50 (NCI-H1650): > 10000 nM
- IC50 (NCI-H187): 530 nM
- IC50 (NCI-H1993): > 10000 nM
- IC50 (NCI-H2170): 2140 nM
- IC50 (NCI-H226): 30 nM
- IC50 (NCI-H28): 340 nM
- IC50 (NCI-H508): 860 nM
- IC50 (SK-CO-1): 430 nM
- IC50 (SKOV3): > 10000 nM
- IC50 (SNU-398): 970 nM
- IC50 (SW-403): 910 nM
- IC50 (SW-900): 1850 nM
- IC50 (THP1): 3380 nM
- IC50 (U-937): 250 nM
SMILES: NC(=O)/C(=C/n1cnc(-c2cc(C(F)(F)F)cc(C(F)(F)F)c2)n1)c1cncnc1 [Compound 124, (E)-3-(3-(3,5-bis(trifluoromethyl)phenyl)-1H-1,2,4-triazol-1-yl)-2-(pyrimidin-5-yl)acrylamide]
- Rev-GFP localization, mutant CRM1-Cys528Ser co-expressed (mutant CRM1-Cys528Ser): did not induce nuclear localization of Rev-GFP
- Rev-GFP localization, wild-type CRM1 co-expressed (wild-type CRM1): Rev-GFP was localized to the cell nucleus and nucleolus
- IC50 (BL-2): 30 nM
- IC50 (BL-40): 400 nM
- IC50 (HuCCT-1): 50 nM
- IC50 (L3.6pl): 470 nM
- IC50 (LS-174T): 10000 nM
- IC50 (MS751): 400 nM
- IC50 (PL-45): 6940 nM
- IC50 (Pfieffer): 140 nM
- IC50 (RKO): 450 nM
- IC50 (U-266): 230 nM
- IC50 (U118MG): 370 nM
